From patent publication US20240108740A1, “THERAPEUTIC COMPOSITIONS INCLUDING SPN10 AND USES THEREOF” (Stealth BioTherapeutics Inc., priority 2022, published 2024)
Residues, ends and D or L forms follow the SMILES beside them.

Key:
[1] = tested on: SN-4741 cells; experiment: Example 31: MPP^+ toxicity (Hoechst 33342); assay type: cell-based; settings: 50 μM MPP^+, 48 hours
Method: SN-4741 cells will be treated with buffer; 50 μM MPP^+; 50 μM MPP^+ and peptide conjugates; 50 μM MPP^+ and aromatic-cationic peptides; or 50 μM MPP^+ and SPN10(s); or 50 μM MPP^+ and SPN10(s) with aromatic-cationic peptides for 48 hours. Apoptosis will be measured by fluorescent microscopy with Hoechst 33342.

[2] = tested on: fatty (fa/fa) Zucker rats; experiment: Example 36: insulin resistance in fatty Zucker rats; assay type: in vivo, rat; settings: approximately 6 weeks
Method: Peptide conjugates (1.0-5.0 mg/kg body wt); aromatic-cationic peptides (an equivalent molar dose of aromatic-cationic peptide based on the concentration of the aromatic-cationic peptide administered in the peptide conjugate treatment group); SPN10(s) (an equivalent molar dose of SPN10 based on the concentration of SPN10 administered in the peptide conjugate treatment group); or SPN10(s) in combination with aromatic-cationic peptides (e.g., an equivalent molar dose of SPN10 based on the concentration of SPN10 administered in the peptide conjugate treatment group and an equivalent molar dose of aromatic-cationic peptide based on the concentration of aromatic-cationic peptide administered in the peptide conjugate treatment group) will be administered to the rats intraperitoneally (i.p.) or orally (drinking water or oral gavage).
Physiological parameters measured will include body weight, fasting glucose/insulin/free fatty acid, oral glucose tolerance (OGTT), in vitro muscle insulin sensitivity (in vitro incubation), biomarkers of insulin signaling (Akt-P, IRS-P), mitochondrial function studies on permeabilized fibers (respiration, H2O2 production), biomarkers of intracellular oxidative stress (lipid peroxidation, GSH/GSSG ratio, aconitase activity), and mitochondrial enzyme activity. Control animals will include wild-type and untreated fatty rats. […]

[3] = tested on: rat model of radiocontrast dye-induced renal failure; experiment: Example 39: radiocontrast dye-induced renal failure; assay type: in vivo
Method: Animal Model: A rat model of radiocontrast dye-induced renal failure as described by Agmon, et al., J. Clin. Invest. 94:1069-1075 (1994) will be used. As in humans, radiocontrast dyes are generally non-toxic when administered to animals with normal renal function. However, radiocontrast dyes can induce ARI in animals with impaired renal function. In this model, impaired renal function will be induced by the administration of indomethacin (10 mg/kg) and L-NAME (10 mg/kg). Animals will be assigned to one of the following groups:
2. Indomethcin and L-NAME administered 15 minutes apart, followed by iothalamate (6 mL/kg) (n=7)
3. peptide conjugates (3 mg/kg, i.p.) administered 15 minutes prior to indomethacin/L-NAME/iothalamate administration as described in Group 2; second dose of peptide conjugates (3 mg/kg) administered immediately after drug exposure (n=9).
4. aromatic-cationic peptides (an equivalent molar dose of aromatic-cationic peptide based on the concentration of the aromatic-cationic peptide administered in the peptide conjugate treatment group) administered 15 minutes prior to indomethacin/L-NAME/iothalamate administration as described in Group 2; second dose of aromatic-cationic peptides (an equivalent molar dose of aromatic-cationic peptide based on the concentration of the aromatic-cationic peptide administered in the peptide conjugate treatment group) administered immediately after drug exposure (n=9).
5. […]
Renal Function: Renal function will be assessed by determining GFR at baseline and 24 hours following dye administration. GFR will be determined by creatinine clearance which will be estimated over a 24 hour interval before and after dye administration. Creatinine clearance will be analyzed by measuring plasma and urinary creatinine levels (Bioassay Systems; DICT-500) and urine volume.
Renal Histology: Kidneys will be fixed in 10% neutral-buffered formalin and embedded in paraffin wax for sectioning. Three-micron sections will be stained with hematoxylin-eosin (H&E) and periodic acid-Schiff (PAS) and analyzed by light microscopy by a board certified pathologist. […]

N=C(N)NCCC[C@H](NC(=O)[C@@H](N)Cc1c[nH]c2ccccc12)C(=O)N[C@@H](Cc1c[nH]c2ccccc12)C(=O)N[C@@H](CCCCN)C(N)=O [SPN10, H-L-Trp-L-Arg-L-Trp-L-Lys-NH2] (H-WRWK-NH2)
number of apoptotic cells after MPP^+ [1]: reduce the number of apoptotic cells
whole body and muscle insulin resistance (treatment) ([2]; Zucker rats (~12 weeks of age)): reduce the whole body and muscle insulin resistance
development of whole body and muscle insulin resistance (prevention) ([2]; young Zucker rats (~3-4 weeks of age)): attenuate or prevent the development of whole body and muscle insulin resistance
number of apoptotic cells in contrast dye-exposed kidneys ([3]; TUNEL): reduce the number of apoptotic cells
loss of renal brush border and vacuolization (PAS) ([3]; contrast dye-exposed kidneys): attenuated
decline in renal function (GFR) after contrast dye ([3]; indomethacin, L-NAME, iothalamate, treatment before and after dye): reduce the decline in renal function
